Assay results reported in the kinase profiling compilation of Christmann-Franck et al. (2016).
Several values for one entry are separate records, joined by “and”; a condition that tells them apart may be missing. Identical values can stand only once.

How the values were obtained:
Assay in all cases: Caliper, Mobility shift assay off-chip
[1] = target: MAPKAPK5 (human) (UniProt Q8IW41)
[2] = target: MARK4 (human) (UniProt Q96L34)
[3] = target: PDK2 (human) (UniProt Q15119)
[4] = target: SIK2 (human) (UniProt Q9H0K1)
[5] = target: ITK (human) (UniProt Q08881)
[6] = target: STK24 (human) (UniProt Q9Y6E0)
[7] = target: FLT4 (human) (UniProt P35916)
[8] = target: NUAK1 (human) (UniProt O60285)
[9] = target: SIK1 (human) (UniProt P57059)
[10] = target: DDR1 (human) (UniProt Q08345)
[11] = target: PIM1 (human) (UniProt P11309)
[12] = target: CIT (human) (UniProt O14578)
[13] = target: PAK1 (human) (UniProt Q13153)
[14] = target: MUSK (human) (UniProt O15146)
[15] = target: ERBB4 (human) (UniProt Q15303)
[16] = target: MAPK1 (human) (UniProt P28482)
[17] = target: PRKG2 (human) (UniProt Q13237)
[18] = target: STK4 (human) (UniProt Q13043)
[19] = target: CDC42BPA (human) (UniProt Q5VT25)
[20] = target: EPHA8 (human) (UniProt P29322)
[21] = target: IRAK4 (human) (UniProt Q9NWZ3)
[22] = target: CLK1 (human) (UniProt P49759)
[23] = target: PRKACG (human) (UniProt P22612)
[24] = target: LYN (human) (UniProt P07948)
[25] = target: PAK2 (human) (UniProt Q13177)
[26] = target: KIT (human) (UniProt P10721)
[27] = target: STK10 (human) (UniProt O94804)
[28] = target: PRKACB (human) (UniProt P22694)
[29] = target: EPHB1 (human) (UniProt P54762)
[30] = target: GSK3A (human) (UniProt P49840)
[31] = target: STK3 (human) (UniProt Q13188)
[32] = target: CDC7 (human) (UniProt O00311)
[33] = target: EEF2K (human) (UniProt O00418)

LYN (human), sequence (P07948 whole entry, looked up): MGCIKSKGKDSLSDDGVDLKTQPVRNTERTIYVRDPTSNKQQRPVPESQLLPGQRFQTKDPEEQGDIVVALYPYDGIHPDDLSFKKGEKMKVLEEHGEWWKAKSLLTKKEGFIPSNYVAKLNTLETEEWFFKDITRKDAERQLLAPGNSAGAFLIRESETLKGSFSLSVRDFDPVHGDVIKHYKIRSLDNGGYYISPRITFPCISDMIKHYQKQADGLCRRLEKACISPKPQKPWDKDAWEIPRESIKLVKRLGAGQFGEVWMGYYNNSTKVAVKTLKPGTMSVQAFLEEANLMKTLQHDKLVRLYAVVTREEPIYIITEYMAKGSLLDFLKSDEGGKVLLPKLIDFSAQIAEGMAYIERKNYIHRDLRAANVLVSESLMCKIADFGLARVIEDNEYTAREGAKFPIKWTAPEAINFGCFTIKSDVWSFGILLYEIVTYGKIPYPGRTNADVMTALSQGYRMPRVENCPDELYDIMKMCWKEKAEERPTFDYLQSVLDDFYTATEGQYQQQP
STK4 (human), sequence (Q13043 whole entry, looked up): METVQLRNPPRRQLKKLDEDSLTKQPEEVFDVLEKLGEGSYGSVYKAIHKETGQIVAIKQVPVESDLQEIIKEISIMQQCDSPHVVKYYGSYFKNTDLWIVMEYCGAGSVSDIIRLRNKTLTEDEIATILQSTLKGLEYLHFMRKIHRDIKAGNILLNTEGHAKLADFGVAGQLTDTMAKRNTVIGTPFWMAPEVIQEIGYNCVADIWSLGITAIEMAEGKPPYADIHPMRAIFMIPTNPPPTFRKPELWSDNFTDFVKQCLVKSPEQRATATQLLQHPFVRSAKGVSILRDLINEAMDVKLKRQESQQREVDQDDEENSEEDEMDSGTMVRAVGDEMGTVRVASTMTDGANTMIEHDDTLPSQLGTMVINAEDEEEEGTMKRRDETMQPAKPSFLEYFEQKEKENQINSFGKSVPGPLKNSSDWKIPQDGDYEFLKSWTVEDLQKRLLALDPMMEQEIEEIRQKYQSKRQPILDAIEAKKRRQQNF
KIT (human), sequence (P10721 whole entry, looked up): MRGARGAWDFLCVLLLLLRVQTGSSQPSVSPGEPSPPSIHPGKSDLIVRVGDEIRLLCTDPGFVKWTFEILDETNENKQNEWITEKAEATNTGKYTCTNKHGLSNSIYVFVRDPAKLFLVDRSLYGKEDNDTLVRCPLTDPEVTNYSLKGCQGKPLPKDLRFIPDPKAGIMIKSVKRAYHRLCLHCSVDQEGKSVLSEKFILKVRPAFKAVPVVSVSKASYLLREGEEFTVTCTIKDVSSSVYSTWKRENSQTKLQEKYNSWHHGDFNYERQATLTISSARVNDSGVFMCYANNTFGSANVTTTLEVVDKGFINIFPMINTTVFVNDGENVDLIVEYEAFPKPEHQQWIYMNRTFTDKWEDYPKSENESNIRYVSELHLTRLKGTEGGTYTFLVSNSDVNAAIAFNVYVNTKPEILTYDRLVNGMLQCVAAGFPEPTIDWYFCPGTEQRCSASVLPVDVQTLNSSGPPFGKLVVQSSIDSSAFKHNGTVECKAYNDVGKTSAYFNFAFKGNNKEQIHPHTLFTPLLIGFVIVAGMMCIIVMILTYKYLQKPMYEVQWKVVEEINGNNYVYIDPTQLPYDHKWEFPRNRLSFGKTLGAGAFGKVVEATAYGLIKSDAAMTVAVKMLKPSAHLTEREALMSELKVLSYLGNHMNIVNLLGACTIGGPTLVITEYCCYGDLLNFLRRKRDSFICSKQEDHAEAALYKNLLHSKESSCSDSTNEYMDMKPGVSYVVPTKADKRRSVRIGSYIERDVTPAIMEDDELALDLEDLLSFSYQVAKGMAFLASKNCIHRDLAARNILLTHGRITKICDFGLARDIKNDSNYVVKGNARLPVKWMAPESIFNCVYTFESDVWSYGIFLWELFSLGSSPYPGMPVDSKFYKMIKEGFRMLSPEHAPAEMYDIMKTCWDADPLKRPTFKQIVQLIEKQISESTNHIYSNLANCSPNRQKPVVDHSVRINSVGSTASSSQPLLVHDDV
SIK1 (human), sequence (P57059 whole entry, looked up): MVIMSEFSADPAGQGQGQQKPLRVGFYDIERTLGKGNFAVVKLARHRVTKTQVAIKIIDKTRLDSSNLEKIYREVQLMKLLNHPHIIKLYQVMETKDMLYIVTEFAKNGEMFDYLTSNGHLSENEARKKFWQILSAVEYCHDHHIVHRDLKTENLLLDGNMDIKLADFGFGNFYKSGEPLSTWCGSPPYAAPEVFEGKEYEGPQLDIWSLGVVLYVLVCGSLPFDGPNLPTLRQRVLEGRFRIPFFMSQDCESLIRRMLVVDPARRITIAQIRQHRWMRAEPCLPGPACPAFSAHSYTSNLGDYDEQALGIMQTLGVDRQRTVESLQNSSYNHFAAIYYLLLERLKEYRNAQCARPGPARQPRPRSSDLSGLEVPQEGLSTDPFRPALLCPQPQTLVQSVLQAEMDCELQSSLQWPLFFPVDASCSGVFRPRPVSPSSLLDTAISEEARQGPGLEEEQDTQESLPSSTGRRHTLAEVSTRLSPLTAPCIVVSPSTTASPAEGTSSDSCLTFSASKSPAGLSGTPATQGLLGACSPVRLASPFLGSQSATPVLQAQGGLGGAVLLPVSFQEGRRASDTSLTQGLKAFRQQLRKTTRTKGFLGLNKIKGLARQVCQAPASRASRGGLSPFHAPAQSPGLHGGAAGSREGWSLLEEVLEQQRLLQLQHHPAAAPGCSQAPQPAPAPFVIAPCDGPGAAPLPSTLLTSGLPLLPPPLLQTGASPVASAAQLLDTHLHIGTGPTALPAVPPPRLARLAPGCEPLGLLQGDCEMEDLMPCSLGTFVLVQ
CDC42BPA (human), sequence (Q5VT25 whole entry, looked up): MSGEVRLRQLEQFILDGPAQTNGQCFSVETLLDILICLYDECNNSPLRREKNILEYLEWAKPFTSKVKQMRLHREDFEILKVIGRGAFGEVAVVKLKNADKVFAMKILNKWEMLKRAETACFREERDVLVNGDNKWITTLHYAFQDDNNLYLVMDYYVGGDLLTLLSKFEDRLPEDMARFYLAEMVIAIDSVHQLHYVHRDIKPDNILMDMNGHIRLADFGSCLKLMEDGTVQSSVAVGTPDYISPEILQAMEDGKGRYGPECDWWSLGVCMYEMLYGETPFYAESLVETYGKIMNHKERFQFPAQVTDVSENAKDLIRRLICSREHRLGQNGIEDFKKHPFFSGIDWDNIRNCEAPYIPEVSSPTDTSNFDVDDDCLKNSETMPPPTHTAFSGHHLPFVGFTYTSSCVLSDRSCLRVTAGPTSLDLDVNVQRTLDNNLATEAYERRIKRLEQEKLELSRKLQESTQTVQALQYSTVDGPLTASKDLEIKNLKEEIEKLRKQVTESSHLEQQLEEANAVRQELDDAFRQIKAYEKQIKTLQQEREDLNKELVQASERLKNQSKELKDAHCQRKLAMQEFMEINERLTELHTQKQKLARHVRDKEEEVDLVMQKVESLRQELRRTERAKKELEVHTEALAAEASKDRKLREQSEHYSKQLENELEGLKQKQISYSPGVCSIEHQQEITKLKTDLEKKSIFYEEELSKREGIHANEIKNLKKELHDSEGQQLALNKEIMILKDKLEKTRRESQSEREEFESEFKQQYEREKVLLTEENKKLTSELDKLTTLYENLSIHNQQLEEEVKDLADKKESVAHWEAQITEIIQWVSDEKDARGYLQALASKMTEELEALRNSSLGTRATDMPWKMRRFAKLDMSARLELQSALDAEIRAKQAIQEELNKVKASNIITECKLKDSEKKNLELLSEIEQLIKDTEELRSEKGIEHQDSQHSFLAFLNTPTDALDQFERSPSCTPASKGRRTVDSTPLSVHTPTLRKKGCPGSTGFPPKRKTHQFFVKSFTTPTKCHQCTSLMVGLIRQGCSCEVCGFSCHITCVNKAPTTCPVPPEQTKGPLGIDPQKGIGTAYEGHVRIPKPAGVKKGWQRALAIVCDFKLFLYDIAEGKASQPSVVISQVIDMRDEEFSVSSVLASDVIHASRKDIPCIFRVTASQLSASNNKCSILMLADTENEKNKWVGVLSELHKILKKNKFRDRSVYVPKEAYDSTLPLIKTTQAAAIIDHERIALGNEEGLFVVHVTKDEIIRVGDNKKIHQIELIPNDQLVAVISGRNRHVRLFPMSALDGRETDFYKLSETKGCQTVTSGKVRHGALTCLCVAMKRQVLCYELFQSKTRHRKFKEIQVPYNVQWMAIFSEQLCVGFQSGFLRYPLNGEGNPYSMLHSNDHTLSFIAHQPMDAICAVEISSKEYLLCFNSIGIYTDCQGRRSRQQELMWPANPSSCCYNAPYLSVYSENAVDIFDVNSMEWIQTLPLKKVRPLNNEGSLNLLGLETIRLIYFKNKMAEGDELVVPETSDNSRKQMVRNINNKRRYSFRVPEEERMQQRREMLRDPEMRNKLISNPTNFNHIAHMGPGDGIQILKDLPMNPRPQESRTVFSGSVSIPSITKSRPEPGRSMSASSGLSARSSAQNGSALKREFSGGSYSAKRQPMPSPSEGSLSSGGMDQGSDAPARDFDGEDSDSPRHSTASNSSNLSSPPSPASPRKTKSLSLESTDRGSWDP
CDC7 (human), sequence (O00311 whole entry, looked up): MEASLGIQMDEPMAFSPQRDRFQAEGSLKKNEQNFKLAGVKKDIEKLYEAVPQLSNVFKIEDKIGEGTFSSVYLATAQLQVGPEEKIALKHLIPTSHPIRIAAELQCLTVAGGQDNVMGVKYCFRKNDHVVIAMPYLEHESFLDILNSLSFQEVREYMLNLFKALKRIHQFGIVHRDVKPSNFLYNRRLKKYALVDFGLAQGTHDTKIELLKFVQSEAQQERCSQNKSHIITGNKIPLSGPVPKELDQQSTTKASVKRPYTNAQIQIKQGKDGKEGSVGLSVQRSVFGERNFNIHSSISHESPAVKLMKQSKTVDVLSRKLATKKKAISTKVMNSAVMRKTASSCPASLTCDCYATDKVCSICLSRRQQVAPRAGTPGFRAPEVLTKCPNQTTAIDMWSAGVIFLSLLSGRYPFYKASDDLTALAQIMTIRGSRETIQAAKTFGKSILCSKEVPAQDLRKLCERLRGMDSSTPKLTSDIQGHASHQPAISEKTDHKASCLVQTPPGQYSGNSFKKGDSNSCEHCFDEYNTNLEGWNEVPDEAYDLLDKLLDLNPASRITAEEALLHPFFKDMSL

- inhibition ([1]; compound 0.02 µM): -7.4%
- inhibition ([1]; compound 0.2 µM): 1.4%
- inhibition ([2]; compound 0.02 µM): 1.4%
- inhibition ([2]; compound 0.2 µM): 1.6%
- inhibition ([3]; compound 0.02 µM): -0.1%
- inhibition ([3]; compound 0.2 µM): 1.3%
- inhibition ([4]; compound 0.02 µM): -3.8%
- inhibition ([4]; compound 0.2 µM): 3%
- inhibition ([5]; compound 0.02 µM): -2.9%
- inhibition ([5]; compound 0.2 µM): 7.5%
- inhibition ([6]; compound 0.02 µM): -3.9%
- inhibition ([6]; compound 0.2 µM): 5.6%
- inhibition ([7]; compound 0.02 µM): 61.6%
- inhibition ([7]; compound 0.2 µM): 98.5%
- inhibition ([8]; compound 0.02 µM): -3.8%
- inhibition ([8]; compound 0.2 µM): 3.8%
- inhibition ([9]; compound 0.02 µM): -3.4%
- inhibition ([9]; compound 0.2 µM): 7.3%
- inhibition ([10]; compound 0.02 µM): 4.2%
- inhibition ([10]; compound 0.2 µM): 88.7%
- inhibition ([11]; compound 0.02 µM): 1%
- inhibition ([11]; compound 0.2 µM): -3.6%
- inhibition ([12]; compound 0.02 µM): -4.9%
- inhibition ([12]; compound 0.2 µM): -2.3%
- inhibition ([13]; compound 0.02 µM): -0.9%
- inhibition ([13]; compound 0.2 µM): 1.1%
- inhibition ([14]; compound 0.02 µM): 24.4%
- inhibition ([14]; compound 0.2 µM): 73.9%
- inhibition ([15]; compound 0.02 µM): -0.4%
- inhibition ([15]; compound 0.2 µM): 10.4%
- inhibition ([16]; compound 0.02 µM): -3.9%
- inhibition ([16]; compound 0.2 µM): -4.1%
- inhibition ([17]; compound 0.02 µM): -4.4%
- inhibition ([17]; compound 0.2 µM): -0.6%
- inhibition ([18]; compound 0.02 µM): -5.1%
- inhibition ([18]; compound 0.2 µM): -3.5%
- inhibition ([19]; compound 0.02 µM): -0.8%
- inhibition ([19]; compound 0.2 µM): 8.1%
- inhibition ([20]; compound 0.02 µM): 2.5%
- inhibition ([20]; compound 0.2 µM): 37.2%
- inhibition ([21]; compound 0.02 µM): -5.9%
- inhibition ([21]; compound 0.2 µM): -4.6%
- inhibition ([22]; compound 0.02 µM): -7%
- inhibition ([22]; compound 0.2 µM): 8.1%
- inhibition ([23]; compound 0.02 µM): -6.6%
- inhibition ([23]; compound 0.2 µM): -6%
- inhibition ([24]; compound 0.02 µM): -5% and -0.3%
- inhibition ([24]; compound 0.2 µM): 35.2% and 36.9%
- inhibition ([25]; compound 0.02 µM): -1.7%
- inhibition ([25]; compound 0.2 µM): 0.7%
- inhibition ([26]; compound 0.02 µM): 32.9%
- inhibition ([26]; compound 0.2 µM): 89.8%
- inhibition ([27]; compound 0.02 µM): 3.3%
- inhibition ([27]; compound 0.2 µM): 36.1%
- inhibition ([28]; compound 0.02 µM): -7.7%
- inhibition ([28]; compound 0.2 µM): 3.1%
- inhibition ([29]; compound 0.02 µM): -1.8%
- inhibition ([29]; compound 0.2 µM): 8.5%
- inhibition ([30]; compound 0.02 µM): -3.9%
- inhibition ([30]; compound 0.2 µM): 6.8%
- inhibition ([31]; compound 0.02 µM): -3.3%
- inhibition ([31]; compound 0.2 µM): -1.9%
- inhibition ([32]; compound 0.02 µM): -4.3%
- inhibition ([32]; compound 0.2 µM): -4.2%
- inhibition ([33]; compound 0.02 µM): -3.9%
- inhibition ([33]; compound 0.2 µM): 0%
SMILES: CNC(=O)c1cc(Oc2ccc(NC(=O)Nc3ccc(Cl)c(C(F)(F)F)c3)cc2)ccn1
